Results from publication PMC4138103 (PLoS ONE, 2014).
Where two headings read alike, the source gives them in different places.

System: Sprague-Dawley rats
Assay: Bone geometry and densitometry (pQCT of tibia)
Type: in vivo, Rattus norvegicus
Design: key to Dose response: Densitometry, diaphysis, Cortical area / Dose response: Densitometry, metaphysis, Trabecular area: D: significant dose response (for results, see Table 2); T: significant trend
Details: for CED, Cortical area of diaphysis / CED-L, Cortical area of diaphysis: M; for Emax: Rattus norvegicus
Method: Hind limbs were collected and frozen at −20°C. Dissected right tibias were cleaned from soft tissue and stored in Ringer solution at −20°C until analysis. The length of each bone was measured using an electronic sliding caliper to the nearest 0.01 mm (IP65, Sylvac SA, Crissier, Switzerland). […] The thresholds for defining trabecular bone were 280 and 400 mg/cm^3, while cortical bone was defined above a threshold of 710 mg/cm^3. The voxel size was 0.07 mm.
Data were also analyzed using the BMD method, which is based on dose-response modeling of the full data set using a nested family of exponential and Hill models. The analyses were done on data of males and females combined, using sex as a covariate. […] In that case, different Critical Effect Doses (CEDs) and CEDs at the lowest bound of the confidence interval (CED-L) were generated for each sex. If no difference between sexes is detected, a CED and CED-Ls for the combined data is generated. However, this was also done if the curve fits are close, and separate analyses for males and females were then performed manually. CEDs and CED-Ls were calculated at the predefined Critical Effect Size (CES) of 5% (EFSA standard) or 10%.

[1] = F, CES 5%, model E2, adipose tissue concentration based
[2] = F, CES 10%, model E2, adipose tissue concentration based
[3] = CES 5%, model E2, adipose tissue concentration based
[4] = CES 10%, model E2, adipose tissue concentration based
[5] = females, CES 5%, total dose based
[6] = males, CES 5%, total dose based
[7] = tibia, females, total dose 3 mg/kg bw
[8] = tibia, females, total dose 10 mg/kg bw
[9] = tibia, females, total dose 30 mg/kg bw
[10] = tibia, females, total dose 100 mg/kg bw
[11] = tibia, females, total dose 300 mg/kg bw
[12] = tibia, females, total dose 1000 mg/kg bw
[13] = tibia, females, total dose 1700 mg/kg bw
[14] = tibia, males, total dose 3 mg/kg bw
[15] = tibia, males, total dose 10 mg/kg bw
[16] = tibia, males, total dose 30 mg/kg bw
[17] = tibia, males, total dose 100 mg/kg bw
[18] = tibia, males, total dose 300 mg/kg bw
[19] = tibia, males, total dose 1000 mg/kg bw
[20] = tibia, males, total dose 1700 mg/kg bw

Clc1cc(Cl)c(-c2cc(Cl)c(Cl)c(Cl)c2Cl)cc1Cl [PCB 180, 2,2′,3′,4,4′,5,5′-heptachlorobiphenyl]
CED, Trabecular area of metaphysis [1]: 6230 µg/g lipid
CED-L, Trabecular area of metaphysis [1]: 3714 µg/g lipid
CED, Trabecular area of metaphysis [2]: 12200 µg/g lipid
CED-L, Trabecular area of metaphysis [2]: 7255 µg/g lipid
CED, Cortical area of diaphysis [3]: 5930 µg/g lipid
CED-L, Cortical area of diaphysis [3]: 3506 µg/g lipid
CED, Cortical area of diaphysis [4]: 12200 µg/g lipid
CED-L, Cortical area of diaphysis [4]: 7202 µg/g lipid
Emax (F, model E2, controls vs high dose according to the fitted model, read-out: Maximum response, Trabecular area of metaphysis): 9.25%
Emax (females, controls vs high dose, fitted model, read-out: Trabecular area of metaphysis, Maximum response): 8.2%
Emax (males, controls vs high dose, fitted model, read-out: Cortical area of diaphysis, Maximum response): -6.1%
Emax (model E2, controls vs high dose according to the fitted model, read-out: Maximum response, Cortical area of diaphysis): -6.19%
Trabecular area of metaphysis, CED [5]: 1040 mg/kg bw
Trabecular area of metaphysis, CED-L [5]: 602 mg/kg bw
Trabecular area of metaphysis, CED (females, adipose tissue concentration based): 6230 µg/g lipid
Trabecular area of metaphysis, Maximum response (females, controls vs high dose, fitted model): 8.30%
Cortical area of diaphysis, CED [6]: 1380 mg/kg bw
Cortical area of diaphysis, CED-L [6]: 820 mg/kg bw
Cortical area of tibial diaphysis, CED (males, adipose tissue concentration based): 5930 µg/g lipid
Densitometry, diaphysis: Cortical area [7]: 3.25 mm2
Densitometry, diaphysis: Cortical density [7]: 1315 mg/cm3
Densitometry, diaphysis: Cortical thickness [7]: 0.49 mm
Densitometry, diaphysis: Endosteal circumference [7]: 5.06 mm
Densitometry, diaphysis: Periosteal circumference [7]: 8.15 mm
Densitometry, metaphysis: Total density [7]: 570 mg/cm3
Densitometry, metaphysis: Trabecular area [7]: 5.33 mm2
Densitometry, metaphysis: Trabecular density [7]: 195 mg/cm3
Densitometry, diaphysis: Cortical area [8]: 3.22 mm2
Densitometry, diaphysis: Cortical density [8]: 1312 mg/cm3
Densitometry, diaphysis: Cortical thickness [8]: 0.49 mm
Densitometry, diaphysis: Endosteal circumference [8]: 5.06 mm
Densitometry, diaphysis: Periosteal circumference [8]: 8.12 mm
Densitometry, metaphysis: Total density [8]: 571 mg/cm3
Densitometry, metaphysis: Trabecular area [8]: 5.37 mm2
Densitometry, metaphysis: Trabecular density [8]: 199 mg/cm3
Densitometry, diaphysis: Cortical area [9]: 3.23 mm2
Densitometry, diaphysis: Cortical density [9]: 1311 mg/cm3
Densitometry, diaphysis: Cortical thickness [9]: 0.49 mm
Densitometry, diaphysis: Endosteal circumference [9]: 5.08 mm
Densitometry, diaphysis: Periosteal circumference [9]: 8.14 mm
Densitometry, metaphysis: Total density [9]: 569 mg/cm3
Densitometry, metaphysis: Trabecular area [9]: 5.52 mm2
Densitometry, metaphysis: Trabecular density [9]: 211 mg/cm3
Densitometry, diaphysis: Cortical area [10]: 3.21 mm2
Densitometry, diaphysis: Cortical density [10]: 1307 mg/cm3
Densitometry, diaphysis: Cortical thickness [10]: 0.49 mm
Densitometry, diaphysis: Endosteal circumference [10]: 4.95 mm
Densitometry, diaphysis: Periosteal circumference [10]: 8.06 mm
Densitometry, metaphysis: Total density [10]: 586 mg/cm3
Densitometry, metaphysis: Trabecular area [10]: 4.99 mm2
Densitometry, metaphysis: Trabecular density [10]: 209 mg/cm3
Densitometry, diaphysis: Cortical area [11]: 3.26 mm2
Densitometry, diaphysis: Cortical density [11]: 1310 mg/cm3
Densitometry, diaphysis: Cortical thickness [11]: 0.50 mm
Densitometry, diaphysis: Endosteal circumference [11]: 5.01 mm
Densitometry, diaphysis: Periosteal circumference [11]: 8.13 mm
Densitometry, metaphysis: Total density [11]: 581 mg/cm3
Densitometry, metaphysis: Trabecular area [11]: 5.25 mm2
Densitometry, metaphysis: Trabecular density [11]: 214 mg/cm3
Densitometry, diaphysis: Cortical area [12]: 3.23 mm2
Densitometry, diaphysis: Cortical density [12]: 1309 mg/cm3
Densitometry, diaphysis: Cortical thickness [12]: 0.49 mm
Densitometry, diaphysis: Endosteal circumference [12]: 4.97 mm
Densitometry, diaphysis: Periosteal circumference [12]: 8.08 mm
Densitometry, metaphysis: Total density [12]: 574 mg/cm3
Densitometry, metaphysis: Trabecular area [12]: 5.41 mm2
Densitometry, metaphysis: Trabecular density [12]: 209 mg/cm3
Densitometry, diaphysis: Cortical area [13]: 3.10 mm2
Densitometry, diaphysis: Cortical density [13]: 1307 mg/cm3
Densitometry, diaphysis: Cortical thickness [13]: 0.48 mm
Densitometry, diaphysis: Endosteal circumference [13]: 5.01 mm
Densitometry, diaphysis: Periosteal circumference [13]: 8.00 mm
Densitometry, metaphysis: Total density [13]: 562 mg/cm3
Densitometry, metaphysis: Trabecular area [13]: 5.84 mm2
Densitometry, metaphysis: Trabecular density [13]: 221 mg/cm3
Dose response: Densitometry, metaphysis, Trabecular area (tibia, females, total doses 0-1700 mg/kg bw): D
Densitometry, diaphysis: Cortical area [14]: 4.04 mm2
Densitometry, diaphysis: Cortical density [14]: 1321 mg/cm3
Densitometry, diaphysis: Cortical thickness [14]: 0.56 mm
Densitometry, diaphysis: Endosteal circumference [14]: 5.47 mm
Densitometry, diaphysis: Periosteal circumference [14]: 8.98 mm
Densitometry, metaphysis: Total density [14]: 493 mg/cm3
Densitometry, metaphysis: Trabecular area [14]: 8.42 mm2
Densitometry, metaphysis: Trabecular density [14]: 174 mg/cm3
Densitometry, diaphysis: Cortical area [15]: 3.95 mm2
Densitometry, diaphysis: Cortical density [15]: 1314 mg/cm3
Densitometry, diaphysis: Cortical thickness [15]: 0.54 mm
Densitometry, diaphysis: Endosteal circumference [15]: 5.55 mm
Densitometry, diaphysis: Periosteal circumference [15]: 8.97 mm
Densitometry, metaphysis: Total density [15]: 465 mg/cm3
Densitometry, metaphysis: Trabecular area [15]: 8.96 mm2
Densitometry, metaphysis: Trabecular density [15]: 139 mg/cm3
Densitometry, diaphysis: Cortical area [16]: 4.08 mm2
Densitometry, diaphysis: Cortical density [16]: 1316 mg/cm3
Densitometry, diaphysis: Cortical thickness [16]: 0.56 mm
Densitometry, diaphysis: Endosteal circumference [16]: 5.58 mm
Densitometry, diaphysis: Periosteal circumference [16]: 9.08 mm
Densitometry, metaphysis: Total density [16]: 485 mg/cm3
Densitometry, metaphysis: Trabecular area [16]: 8.63 mm2
Densitometry, metaphysis: Trabecular density [16]: 165 mg/cm3
Densitometry, diaphysis: Cortical area [17]: 4.06 mm2
Densitometry, diaphysis: Cortical density [17]: 1300 mg/cm3
Densitometry, diaphysis: Cortical thickness [17]: 0.55 mm
Densitometry, diaphysis: Endosteal circumference [17]: 5.70 mm
Densitometry, diaphysis: Periosteal circumference [17]: 9.14 mm
Densitometry, metaphysis: Total density [17]: 458 mg/cm3
Densitometry, metaphysis: Trabecular area [17]: 9.57 mm2
Densitometry, metaphysis: Trabecular density [17]: 159 mg/cm3
Densitometry, diaphysis: Cortical area [18]: 4.06 mm2
Densitometry, diaphysis: Cortical density [18]: 1313 mg/cm3
Densitometry, diaphysis: Cortical thickness [18]: 0.56 mm
Densitometry, diaphysis: Endosteal circumference [18]: 5.53 mm
Densitometry, diaphysis: Periosteal circumference [18]: 9.03 mm
Densitometry, metaphysis: Total density [18]: 474 mg/cm3
Densitometry, metaphysis: Trabecular area [18]: 8.85 mm2
Densitometry, metaphysis: Trabecular density [18]: 150 mg/cm3
Densitometry, diaphysis: Cortical area [19]: 3.88 mm2
Densitometry, diaphysis: Cortical density [19]: 1306 mg/cm3
Densitometry, diaphysis: Cortical thickness [19]: 0.54 mm
Densitometry, diaphysis: Endosteal circumference [19]: 5.51 mm
Densitometry, diaphysis: Periosteal circumference [19]: 8.90 mm
Densitometry, metaphysis: Total density [19]: 468 mg/cm3
Densitometry, metaphysis: Trabecular area [19]: 8.69 mm2
Densitometry, metaphysis: Trabecular density [19]: 154 mg/cm3
Densitometry, diaphysis: Cortical area [20]: 3.80 mm2
Densitometry, diaphysis: Cortical density [20]: 1315 mg/cm3
Densitometry, diaphysis: Cortical thickness [20]: 0.53 mm
Densitometry, diaphysis: Endosteal circumference [20]: 5.54 mm
Densitometry, diaphysis: Periosteal circumference [20]: 8.86 mm
Densitometry, metaphysis: Total density [20]: 483 mg/cm3
Densitometry, metaphysis: Trabecular area [20]: 8.64 mm2
Densitometry, metaphysis: Trabecular density [20]: 164 mg/cm3
Dose response: Densitometry, diaphysis, Cortical area (tibia, males, total doses 0-1700 mg/kg bw): D
